The numbers were not newly measured in patent US20170360735A1, “INGESTIBLE EMULSION MATRIX FOR DELIVERY OF CREATINE” (DreamPak, priority 2016, published 2017), which cites them from elsewhere.

Like-named read-outs stand apart in the source and are kept apart here.

The conditions of series [1]: oral, estimated.
The conditions of series [2]: ingestion of 20-30 g creatine per day for several days.

As for “N-(aminoiminomethyl)-N-methylglycine [creatine]”, the “creatine dissolved in water” value reads like this: (at 70° F.) “about 1.4%”; (at 120° F.) “about 4.5%”. The “absorption rate from the gastrointestinal (GI) tract” value in series [1] is recorded as 1-14%. In addition, the “increase in human skeletal muscle creatine content” value in series [2] is recorded as “greater than 20%”.
